Patent US9896458B2, “Compounds, compositions and methods” (Denali Therapeutics Inc., priority 0216, dated 2018)
Where two headings read alike, the source gives them in different places. Each block holds one compound with its values, some of them ahead of it.

Experiments:
[1] = in vivo
[2] = system: TNF/zVAD induced temperature loss; assay: TNF-driven systemic inflammatory response syndrome model (TNF/zVAD); format: in vivo; settings: mice, 5 mg/kg oral, 15 minutes before intravenous TNF/zVAD
Excerpt: The in vivo efficacy of compounds can be determined in mice using a TNF-driven systemic inflammatory response syndrome model as described by Duprez et. al. (2011, Immunity 35(6), 908-918) and Berger et. al. (2015, Cell Death Disc. 1, 15009). In this model system TNF/zVAD (tumor necrosis factor/Z-Val-Ala-DL-Asp-fluoromethylketone, a caspase inhibitor) treatment results in temperature loss and the production of several inflammatory cytokines. The ability of a test compound to inhibit these inflammatory effects can be measured in this model by dosing mice with test compound 15 minutes before administration of TNF/zVAD and measuring the inflammatory response. The dose required to inhibit the inflammatory response is a measure of the compounds efficacy at that dose. Using this model, Compound 42 was orally pre-dosed at 5 mg/kg 15 minutes before intraveneous administration of TNF/zVAD and temperature loss in the mice was measured by an implanted temperature chip. […] The decrease in dosing has a number of important potential advantages, including requiring less frequent administration to a patient, increased patient compliance, and improved safety profile such as lower toxicities while achieving similar efficacy.

[3] = Metabolic stability (hepatocytes); format: in vitro ADME; settings: human cryopreserved hepatocytes, well-stirred model
Excerpt: Hepatic clearance is expressed as mL/min/kg.

[4] = cynomolgus monkey, in vivo
[5] = in vivo; remark: listed apart in the source
[6] = system: FADD-deficient Jurkat cells; assay: cellular necroptosis assay (human TNFα induced); format: cell-based; settings: 48 h, human TNFα 10 ng/mL, viability after 48 h, CellTiter-Glo, read-out: Cell IC50
[7] = system: TNF/zVAD induced temperature loss; settings: dose of 30 mg/kg, from WO 2014/125444 Table 2; cited from earlier work
[8] = male, Sprague-Dawley Crl:CD(SD)

Structure (SMILES): C[C@H]1Oc2cccnc2N(C)C(=O)[C@H]1NC(=O)c1nn(Cc2ccccc2)cc1F [Example 92, 1-benzyl-N-((2R,3S)-2,5-dimethyl-4-oxo-2,3,4,5-tetrahydropyrido[3,2-b][1,4]oxazepin-3-yl)-4-fluoro-1H-pyrazole-3-carboxamide]
Rat unbound CL [1, 8]: 420 mL/min/kg

Structure (SMILES): CN1C(=O)[C@@H](NC(=O)c2cc(C3(c4ccccc4)CC3)on2)COc2ccccc21 [Example 8, (S)-N-(5-methyl-4-oxo-2,3,4,5-tetrahydrobenzo[b][1,4]oxazepin-3-yl)-5-(1-phenylcyclopropyl)isoxazole-3-carboxamide]
Rat unbound CL [1, 8]: 3700 mL/min/kg

Structure (SMILES): CN1C(=O)[C@@H](NC(=O)c2ncn(Cc3cccc(C#N)c3)n2)COc2cccnc21 [Example 171, (S)-1-(3-cyanobenzyl)-N-(5-methyl-4-oxo-2,3,4,5-tetrahydropyrido[3,2-b][1,4]oxazepin-3-yl)-1H-1,2,4-triazole-3-carboxamide]
Rat unbound CL [1, 8]: 32 mL/min/kg

Structure (SMILES): CN1C(=O)[C@@H](NC(=O)c2nnc(C3(c4ccccc4)CC3)o2)COc2cccnc21 [Example 66, (S)-N-(5-methyl-4-oxo-2,3,4,5-tetrahydropyrido[3,2-b][1,4]oxazepin-3-yl)-5-(1-phenylcyclopropyl)-1,3,4-oxadiazole-2-carboxamide]
Human hepatocyte CLhep Avg [3]: 6.3 mL/min/kg
Dog unbound CL ([5]; male, Beagle): 36 mL/min/kg

Structure (SMILES): CN1C(=O)[C@@H](NC(=O)c2nnc(Cc3ccccc3)o2)COc2cccnc21 [Example 146, (S)-5-benzyl-N-(5-methyl-4-oxo-2,3,4,5-tetrahydropyrido[3,2-b][1,4]oxazepin-3-yl)-1,3,4-oxadiazole-2-carboxamide]
Rat unbound CL [1, 8]: 61 mL/min/kg
Cyno unbound CL ([4]; male): 39 mL/min/kg

Structure (SMILES): CN1C(=O)[C@@H](NC(=O)c2cc(Cc3ccccc3)on2)COc2ccccc21 [C, reference compound]
Human hepatocyte CLhep Avg [3]: 19 mL/min/kg

Structure (SMILES): CN1C(=O)[C@@H](NC(=O)c2cn(Cc3ccccc3)nn2)[C@H]2C[C@H]2c2nccnc21 [Example 195, 1-benzyl-N-((7S,7aS,8aR)-5-methyl-6-oxo-5,6,7,7a,8,8a-hexahydrocyclopropa[d]pyrazino[2,3-b]azepin-7-yl)-1H-1,2,3-triazole-4-carboxamide]
IC50 [6]: 16 nM

Structure (SMILES): C[C@H]1Oc2cccnc2N(C)C(=O)[C@H]1NC(=O)c1ncn(Cc2cccc(C#N)c2)n1 [Example 172]
Rat unbound CL [1]: 65 mL/min/kg

Structure (SMILES): O=C(N[C@H]1COc2ccccc2-n2ccnc21)c1cc(Cc2ccccc2)on1 [Example 70A, (R)-5-benzyl-N-(4,5-dihydrobenzo[b]imidazo[1,2-d][1,4]oxazepin-4-yl)isoxazole-3-carboxamide]
IC50 [6]: 0.1 to 1000 nM

Structure (SMILES): CN1C(=O)[C@@H](NC(=O)c2cc(C3(c4ccccc4)CC3)on2)COc2cccnc21 [Example 77, (S)-N-(5-methyl-4-oxo-2,3,4,5-tetrahydropyrido[3,2-b][1,4]oxazepin-3-yl)-5-(1-phenylchclopropyl)isoxazole-3-carboxamide]
Human hepatocyte CLhep Avg [3]: 19 mL/min/kg

Structure (SMILES): CN1C(=O)[C@@H](NC(=O)c2nnc(Cc3ccccc3)o2)COc2ccccc21 [B, reference compound]
Human hepatocyte CLhep Avg [3]: 14 mL/min/kg

Structure (SMILES): CN1C(=O)[C@@H](NC(=O)c2nc(Cc3ccccc3)n[nH]2)COc2cccnc21 [Example 42]
Rat unbound CL [1]: 22 mL/min/kg
Dog unbound CL [5]: 64 mL/min/kg
Cyno unbound CL [4]: 42 mL/min/kg

Structure (SMILES): C[C@H]1Oc2cccnc2N(C)C(=O)[C@H]1NC(=O)c1nnc(Cc2ccccc2)o1 [Example 134, 5-Benzyl-N-((2R,3S)-2,5-dimethyl-4-oxo-2,3,4,5-tetrahydropyrido[3,2-b][1,4]oxazepin-3-yl)-1,3,4-oxadiazole-2-carboxamide]
Rat unbound CL [1, 8]: 100 mL/min/kg
Cyno unbound CL ([4]; male): 140 mL/min/kg

Second part, led by results:

Human hepatocyte CLhep Avg [3]: 0.8 mL/min/kg
Structure (SMILES): CN1C(=O)[C@@H](NC(=O)c2nnc(Cc3ccccc3)[nH]2)COc2cccnc21 [Example 42, (S)-5-benzyl-N-(5-methyl-4-oxo-2,3,4,5-tetrahydropyrido[3,2-b][1,4]pxazepin-3-yl)-4H-1,2,4-triazole-3-carboxamide]
inhibition of temperature loss [2]: 96%

Rat unbound CL [1]: 55 mL/min/kg
Cyno unbound CL [4]: 58 mL/min/kg
Structure (SMILES): CN1C(=O)[C@@H](NC(=O)c2nnc(Cc3ccccc3)o2)[C@H]2C[C@H]2c2nccnc21 [Example 177A]

Rat unbound CL [1, 8]: 44 mL/min/kg
Cyno unbound CL ([4]; male): 40 mL/min/kg
Structure (SMILES): C[C@H]1Oc2cccnc2N(C)C(=O)[C@H]1NC(=O)c1nnc(Cc2ccccc2)[nH]1 [Example 94, 5-benzyl-N-((2R,3S)-2,5-dimethyl-4-oxo-2,3,4,5-tetrahydropyrido[3,2-b][1,4]oxazepin-3-yl)-4H-1,2,4-triazole-3-carboxamide]

Rat unbound CL [1, 8]: 91 mL/min/kg
Human hepatocyte CLhep Avg [3]: 9.1 mL/min/kg
Cyno unbound CL ([4]; male): 93 mL/min/kg
Structure (SMILES): CN1C(=O)[C@@H](NC(=O)c2nnc(Cc3ccccc3)[nH]2)[C@H]2C[C@H]2c2cccnc21 [Example 75A, 5-benzyl-N-((1aS,2S,8bR)-4-methyl-3-oxo-1,1a,2,3,4,8b-hexahydrocyclopropa[d]pyrido[2,3-b]azepin-2-yl)-4H-1,2,4-triazole-3-carboxamide]

Rat unbound CL [1, 8]: 77 mL/min/kg
Human hepatocyte CLhep Avg [3]: 6.8 mL/min/kg
Dog unbound CL ([5]; male, Beagle): 240 mL/min/kg
Structure (SMILES): CN1C(=O)[C@@H](NC(=O)c2nnc(Cc3ccccc3)[nH]2)COc2ccccc21 [A, reference compound]
inhibition of temperature loss [7]: 93%

Human hepatocyte CLhep Avg [3]: 1.0 mL/min/kg
Cyno unbound CL ([4]; male): 82 mL/min/kg
Structure (SMILES): O=C(N[C@@H]1C(=O)Nc2c(F)cc(F)cc2[C@@H]2C[C@H]12)c1nnc(Cc2ccccc2)[nH]1 [Example 83A, 5-benzyl-N-((1aS,2S,8bR)-5,7-difluoro-3-oxo-1,1a,2,3,4,8b-hexahydrobenzo[b]cyclopropa[d]azepin-2-yl)-4H-1,2,4-triazole-3-carboxamide]
